Structures are written as SMILES. Like-named read-outs stand apart in the source and are kept apart here.

Series [1] is described as follows: logp: n-octanol/water partition coefficient by reversed phase HPLC. Format: physicochemical. Particulars: h2o/ch3cn, read-out: logp (logarithm to base ten of the n-octanol/water partition coefficient). An excerpt: *) logp: Logarithm to base ten of the n-octanol/water partition coefficient, determined by reversed phase HPLC analysis using H2 O/CH3 CN.
*^) logp: Logarithm to base ten of the noctanol/water partition
coefficient, determined by reversed phase HPLC analysis using H2

Series [2] has as its system common spider mite (Tetranychus urticae). Put plainly: Tetranychus test (OP resistant/dip treatment). Format: in vivo. To be noted: Tetranychus urticae, 312 h, read-out: destruction in %. The protocol: Tetranychus test (OP resistant/dip treatment)
Solvent: 3 parts by weight of dimethylformamide
(§1) Emulsifier: 1 part by weight of alkylaryl polyglycol ether
To produce a suitable preparation of active compound, 1 part by weight of active compound is mixed with the stated amount of solvent and the stated amount of emulsifier, and the concentrate is diluted with emulsifier-containing water to the desired concentrations.
Bean plants (Phaseolus vulgaris) which are heavily infested by all stages of the common spider mite (Tetranychus urticae) are dipped into the active compound preparation of the desired concentration.
After the desired period of time, the activity in % is determined. 100% means that all the spider mites have been killed; 0% means that none of the spider mites have been killed.

Series [3] concerns mustard beetle larvae (Phaedon cochleariae). Put plainly: Phaedon larvae test. Format: in vivo. To be noted: Phaedon cochleariae, 168 h; active compound concentration 0.01%, after 7 days; read-out: destruction in %. As for the experimental part:
Solvent: 7 parts by weight of dimethylformamide
as §1
To produce a suitable preparation of active compound, I part by weight of active compound is mixed with the stated amount of solvent and the stated amount of emulsifier, and the concentrate is diluted with water to the desired concentration.
Cabbage leaves (Brassica oleracea) are treated by being dipped into the active compound preparation of the desired concentration and are infested with mustard beetle larvae (Phaedon cochleariae), while the leaves are still moist.
After the desired period of time, the destruction in % is determined. 100% means that all the beetle larvae have been killed; 0% means that none of the beetle larvae have been killed.

[4] abbreviates: A isomer (possible geometric isomer).
Setting [5] is: B isomer (possible geometric isomer).

As to `OC1CCC(c2ccc(C3COC(c4c(F)cccc4F)=N3)cc2)CC1` (single isomer, unassigned) [Example 2, 2-(2,6-difluorophenyl)-4-[4-(4-hydroxycyclohexyl)phenyl]-1,3-oxazoline], in series [1], the chromatographic logP was determined as 2.53. For `O=C1CCC(c2ccc(C(CCl)NC(=O)c3c(F)cccc3F)cc2)CC1` (stereo not drawn) [2-(2,6-difluorobenzoylamido)-2-[4-(4-oxo-cyclohexyl)phenyl]-chloroethane], the chromatographic logP in series [1] was determined as 2.54.

As to `CCCOc1ccc(-c2ccc(C3COC(c4c(F)cccc4F)=N3)cc2)cc1` (stereo not drawn) [(F), reference compound], the mortality at 0.0001 % in series [2] came to 45%. As to `ON=C1CCC(c2ccc(C3COC(c4c(F)cccc4F)=N3)cc2)CC1` (stereo not drawn) [Example 3, 2-(2,6-difluorophenyl)-4-[4-(4-oximino-cyclohexyl)phenyl]-1,3-oxazoline], the chromatographic logP in series [1] came out at 2.57. On the same count and under the same terms, for `OC1CCC(c2ccc(C3COC(c4c(F)cccc4F)=N3)cc2)CC1` (stereo not drawn) [Example 7] the value was 2.74. Consider `COC1(OC)CCC(c2ccc(C3COC(c4c(F)cccc4F)=N3)cc2)CC1` (stereo not drawn) [Example 8], for which the chromatographic logP in series [1] was determined as 3.8. Moreover, the mortality at 0.01 % in series [3] worked out at 90%.

For `Fc1cccc(F)c1C1=NC(c2ccc(C3CCC4(CC3)OCCO4)cc2)CO1` (stereo not drawn) [Example 11], the chromatographic logP in series [1] worked out at 3.46.

With `Fc1cccc(F)c1C1=NC(c2ccc(C3CCC(=NOCc4ccccc4)CC3)cc2)CO1` (stereo not drawn) [Example 12], the chromatographic logP in series [1] came out at 4.7. Moreover, the mortality at 0.0001 % in series [2] came to 98%. On to `CCCCCCCCCCCCCCCC1COC2(CCC(c3ccc(C4COC(c5c(F)cccc5F)=N4)cc3)CC2)O1` (stereo not drawn) [Example 18], for which, in series [1], the chromatographic logP was 9. Consider `Fc1cccc(F)c1C1=NC(c2ccc(C3CCC(=NOCc4ccc(C(F)(F)F)cc4Cl)CC3)cc2)CO1` (stereo not drawn) [Example 20], for which the chromatographic logP in series [1] amounted to 5.91. Moreover, the mortality at 0.01 % in series [3] was 100%. The mortality at 0.0001 % in series [2] came out at 98%. For `Fc1cccc(F)c1C1=NC(c2ccc(C3CCC(=NOCc4ccccc4Cl)CC3)cc2)CO1` (stereo not drawn) [Example 22], the chromatographic logP in series [1] was 5.21. In series [2], the mortality at 0.0001 % amounted to 98%. The like results for `CC(C)(C)c1ccc(C2COC3(CCC(c4ccc(C5COC(c6c(F)cccc6F)=N5)cc4)CC3)O2)cc1` (stereo not drawn) [Example 23] were, in that order, 6.16 and 98%. Turning to `Fc1cccc(F)c1C1=NC(c2ccc(C3CCC4(CC3)OCC(c3ccccc3Cl)O4)cc2)CO1` (stereo not drawn) [Example 24], the chromatographic logP in series [1] came to 5.6. Moreover, the mortality at 0.0001 % in series [2] turned out to be 98%.

`Fc1cccc(F)c1C1=NC(c2ccc(C3CCC4(CC3)OCC(c3cccc(Cl)c3Cl)O4)cc2)CO1` (stereo not drawn) [Example 25]: the chromatographic logP in series [1] worked out at 6.07. Further, the mortality at 0.0001 % in series [2] is 98%.

Consider `CC1CC(C)(C)OC2(CCC(c3ccc(C4COC(c5c(F)cccc5F)=N4)cc3)CC2)O1` (stereo not drawn) [Example 26], for which the chromatographic logP in series [1] (setting [4]) is 5.12; in series [1] (setting [5]), 5.19. Regarding `CCC1COC2(CCC(c3ccc(C4COC(c5c(F)cccc5F)=N4)cc3)CC2)O1` (stereo not drawn) [Example 27], the chromatographic logP in series [1] was found to be 4.43. Still for that read-out and setting: for `CCCC1COC2(CCC(c3ccc(C4COC(c5c(F)cccc5F)=N4)cc3)CC2)O1` (stereo not drawn) [Example 28] the value was 4.52. Consider `CC1CCOC2(CCC(c3ccc(C4COC(c5c(F)cccc5F)=N4)cc3)CC2)O1` (stereo not drawn) [Example 29], for which the results for the chromatographic logP in series [1] (setting [4]) and in series [1] (setting [5]) were 3.95 and 3.98, respectively. On the same counts, the results for `CCCCC1COC2(CCC(c3ccc(C4COC(c5c(F)cccc5F)=N4)cc3)CC2)O1` (stereo not drawn) [Example 30] are 5.35 and 5.4. The like results for `CC1CC(C)OC2(CCC(c3ccc(C4COC(c5c(F)cccc5F)=N4)cc3)CC2)O1` (stereo not drawn) [Example 31] were, in that order, 4.52 and 4.84. Take `Fc1cccc(F)c1C1=NC(c2ccc(C3CCC4(CC3)OCCCO4)cc2)CO1` (stereo not drawn) [Example 32]: the chromatographic logP in series [1] amounted to 3.47. The same measure, in the same setting: as for `CC1(C)COC2(CCC(c3ccc(C4COC(c5c(F)cccc5F)=N4)cc3)CC2)OC1` (stereo not drawn) [Example 33], the figure is 4.5. As for `CCCCCCCCC1COC2(CCC(c3ccc(C4COC(c5c(F)cccc5F)=N4)cc3)CC2)O1` (stereo not drawn) [Example 34], the chromatographic logP is 7.19 in series [1] (setting [4]) and 7.28 in series [1] (setting [5]). Consider `CCCCON=C1CCC(c2ccc(C3COC(c4c(F)cccc4F)=N3)cc2)CC1` (stereo not drawn) [Example 36], for which the chromatographic logP in series [1] worked out at 4.95.

Turning to `CCCC1(C)COC2(CCC(c3ccc(C4COC(c5c(F)cccc5F)=N4)cc3)CC2)OC1` (stereo not drawn) [Example 37], in series [1], the chromatographic logP is 5.46. Still for that read-out and setting: for `CCC1(CC)COC2(CCC(c3ccc(C4COC(c5c(F)cccc5F)=N4)cc3)CC2)OC1` (stereo not drawn) [Example 38] the value was 5.4.

`Fc1cccc(F)c1C1=NC(c2ccc(C3CCC4(CC3)OCC(c3ccc(Br)cc3)O4)cc2)CO1` (stereo not drawn) [Example 39]: the chromatographic logP worked out at 5.36 in series [1] (setting [4]) and 5.51 in series [1] (setting [5]). Take `CC1(c2ccccc2)COC2(CCC(c3ccc(C4COC(c5c(F)cccc5F)=N4)cc3)CC2)OC1` (stereo not drawn) [Example 40]: the chromatographic logP in series [1] amounted to 5.11. On to `Fc1cccc(F)c1C1=NC(c2ccc(C3CCC4(CC3)OCC(COc3ccccc3)O4)cc2)CO1` (stereo not drawn) [Example 41], for which the chromatographic logP in series [1] (setting [4]) stood at 4.73; in series [1] (setting [5]), 4.75.

As for `Cc1cc(C)cc(OCC2COC3(CCC(c4ccc(C5COC(c6c(F)cccc6F)=N5)cc4)CC3)O2)c1` (stereo not drawn) [Example 42], the chromatographic logP in series [1] (setting [4]) worked out at 5.44; in series [1] (setting [5]) it was 5.48.

As for `Fc1cccc(F)c1C1=NC(c2ccc(C3CCC4(CC3)OCC(c3c(F)cccc3F)O4)cc2)CO1` (stereo not drawn) [Example 43], the values for the chromatographic logP in series [1] (setting [4]) and in series [1] (setting [5]) were 4.77 and 4.86, respectively. Turning to `COc1ccc(C2COC3(CCC(c4ccc(C5COC(c6c(F)cccc6F)=N5)cc4)CC3)OC2)cc1` (stereo not drawn) [Example 44], in series [1], the chromatographic logP was 4.61. For the molecule `Fc1cccc(F)c1C1=NC(c2ccc(C3CCC4(CC3)OCC(Br)(c3ccc(Cl)cc3)O4)cc2)CO1` (stereo not drawn) [Example 45], the values for the chromatographic logP in series [1] (setting [4]) and in series [1] (setting [5]) were 5.96 and 6.2, respectively.

For the molecule `Fc1cccc(F)c1C1=NC(c2ccc(C3CCC4(CC3)OCC(COc3ccc(Cl)cc3)O4)cc2)CO1` (stereo not drawn) [Example 46], the chromatographic logP in series [1] (setting [4]) is 5.1; in series [1] (setting [5]), 5.16. Consider `CC(C)C1(c2ccc(Cl)cc2)COC2(CCC(c3ccc(C4COC(c5c(F)cccc5F)=N4)cc3)CC2)OC1` (stereo not drawn) [Example 47], for which the chromatographic logP in series [1] turned out to be 6.15. The same measure, in the same setting: for `C=CCOCC1COC2(CCC(c3ccc(C4COC(c5c(F)cccc5F)=N4)cc3)CC2)O1` (stereo not drawn) [Example 48] the value was 4.21. Take `COCC1COC2(CCC(c3ccc(C4COC(c5c(F)cccc5F)=N4)cc3)CC2)O1` (stereo not drawn) [Example 49]: the figures for the chromatographic logP in series [1] (setting [4]) and in series [1] (setting [5]) were 3.57 and 3.6, respectively. In the case of `CC1COC2(CCC(c3ccc(C4COC(c5c(F)cccc5F)=N4)cc3)CC2)O1` (stereo not drawn) [Example 50], the chromatographic logP in series [1] turned out to be 3.89.

On to `CCCCOCC1COC2(CCC(c3ccc(C4COC(c5c(F)cccc5F)=N4)cc3)CC2)O1` (stereo not drawn) [Example 51], for which the values for the chromatographic logP in series [1] (setting [4]) and in series [1] (setting [5]) were 4.97 and 5, respectively. With `CC1COC2(CCC(c3ccc(C4COC(c5c(F)cccc5F)=N4)cc3)CC2)OC1` (stereo not drawn) [Example 52], in series [1], the chromatographic logP came out at 3.99. As to `CC=CC1OC2(CCC(c3ccc(C4COC(c5c(F)cccc5F)=N4)cc3)CC2)OC1C=CC` (stereo not drawn) [Example 53], the figures for the chromatographic logP in series [1] (setting [4]) and in series [1] (setting [5]) were 5.23 and 5.37, respectively.

`C=CCCCCC1COC2(CCC(c3ccc(C4COC(c5c(F)cccc5F)=N4)cc3)CC2)O1` (stereo not drawn) [Example 54]: the chromatographic logP turned out to be 5.65 in series [1] (setting [4]) and 5.7 in series [1] (setting [5]). Regarding `C=CCON=C1CCC(c2ccc(C3COC(c4c(F)cccc4F)=N3)cc2)CC1` (stereo not drawn) [Example 55], the chromatographic logP in series [1] came out at 4.16. On the same count and under the same terms, for `CON=C1CCC(c2ccc(C3COC(c4c(F)cccc4F)=N3)cc2)CC1` (stereo not drawn) [Example 56] the value was 3.6.

Consider `O=C1CCC(c2ccc(C3COC(c4c(F)cccc4Cl)=N3)cc2)CC1` (stereo not drawn) [Example 57], for which the chromatographic logP in series [1] was 3.09. As to `Fc1cccc(F)c1C1=NC(c2ccc(C3CCC4(CC3)OCC(c3ccccc3)O4)cc2)CO1` (stereo not drawn) [Example 58], the chromatographic logP in series [1] (setting [4]) stood at 4.78; in series [1] (setting [5]) it was 4.87.

For `Fc1cccc(F)c1C1=NC(c2ccc(C3CCC4(CC3)OCC(c3c(F)cccc3Cl)O4)cc2)CO1` (stereo not drawn) [Example 59], the chromatographic logP in series [1] came to 5.14.

Regarding `Fc1cccc(F)c1C1=NC(c2ccc(C3CCC4(CC3)OCC(c3ccc(Cl)c(Cl)c3)O4)cc2)CO1` (stereo not drawn) [Example 60], the chromatographic logP in series [1] worked out at 5.65.

The record behind these values is US6015823A, “4-Cyclohexylphenyl-oxazolines and their use for controlling animal pests” (Bayer Aktiengesellschaft, priority 1996, dated 2000).
